Reference: patent publication US20150011566A1, “N-PHENYLPIPERAZINE DERIVATIVES THAT ARE ANTAGONISTS OF A1A, A1D ADRENOCEPTORS AND 5-HT1A RECEPTORS FOR THE TREATMENT OF BENIGN PROSTATE HYPERPLASIA, PHARMACEUTICAL COMPOSITIONS CONTAINING THE SAME” (UNIVERSIDADE FEDERAL DO RIO DE JANEIRO-UFRJ, priority 2012, published 2015)
Read-outs that look alike come from different tables or passages of the source.

Tests used:
α1A adrenoceptors = biological target: T1, α1A adrenoceptors (Oryctolagus cuniculus, UniProt O02824); test: Binding of [3H]-prazosin to α1A adrenoceptors (rabbit liver membranes)
T1 construct: from tissue; host or cells: rabbit liver membranes
T1 sequence (O02824 1-466): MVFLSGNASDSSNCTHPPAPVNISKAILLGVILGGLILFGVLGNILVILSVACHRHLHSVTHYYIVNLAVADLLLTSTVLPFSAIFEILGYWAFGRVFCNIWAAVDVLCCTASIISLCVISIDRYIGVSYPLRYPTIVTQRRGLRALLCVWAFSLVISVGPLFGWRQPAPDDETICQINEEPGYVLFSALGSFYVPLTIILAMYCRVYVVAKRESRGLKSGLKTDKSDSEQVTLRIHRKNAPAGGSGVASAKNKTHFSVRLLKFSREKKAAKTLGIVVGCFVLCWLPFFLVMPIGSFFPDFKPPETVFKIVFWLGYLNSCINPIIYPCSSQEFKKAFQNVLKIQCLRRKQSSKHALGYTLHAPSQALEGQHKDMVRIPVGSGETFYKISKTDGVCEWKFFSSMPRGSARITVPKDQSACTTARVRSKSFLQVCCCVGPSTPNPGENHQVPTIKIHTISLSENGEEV
Experimental: Following the protocol described previously in the literature, membrane preparations from rabbit liver homogenates were obtained. Such membrane preparations are enriched in adrenoceptor subtype α1A. The tissue obtained as described above (˜30 g) was naturally thawed, immersed in thawing solution (0.25 M sucrose, 1 mM EGTA and 5 mM Tris (pH 7.4)) freezing. Then, the tissue was transferred to a petri dish on ice containing solution for homogenizing liver (2 mM EDTA, 100 mM NaCl and 50 mM Tris (pH 7.4)) freezing. The liver was then carefully cut by ignoring the most fibrous part.
Then, the material was transferred into a beaker where with the aid of Ultra-Turrax homogenizer (speed 24,000 RPM), the tissue was homogenized with the same buffer solution at a ratio of 6 parts of the solution to 1 part material. The material was homogenized three times for 20 seconds; in the intervals the solution was allowed to stand for 1 minute on ice. Subsequently, the homogenate was subjected to centrifugation 10,000×g for 10 minutes at 4° C., yielding a supernatant which was subjected to ultracentrifugation 80,000×g for 40 minutes at 4° C. yielding a pellet. This pellet was resuspended in buffer solution without NaCl (1 mM EDTA and 50 mM Tris (pH 7.4)) and further subjected to ultracentrifugation in the same previous conditions. The pellet obtained was resuspended in this step storage solution (0.25 M sucrose, 1 mM EGTA and 5 mM Tris (pH 7.4)) with the aid of a manual type Dounce homogenizer and stored in aliquots at 300 μL liquid nitrogen. In all protocols for membrane preparations the dosage of protein were performed according to the method of LOWRY et al. (J. Biol. Chem. 193 (1):265-275, 1951).
The standardization of the assay was done as described in the literature. […] Assays were performed in triplicate.
In both assays, membrane preparations were incubated at 0° C. for 45 minutes. After the incubation period, the reaction was stopped by adding 4 mL of ice-cold wash buffer (50 mM Tris-HCl, pH 7.4) followed by rapid vacuum filtration on glass fiber filter (GMF 3 Filtrak®). The filters were washed four times with 4 ml of the same solution under vacuum to remove all free radioligand. Then the filters were dried and placed in vials containing 5 ml scintillation fluid (4% PPO, 0.1% POPOP w/v in toluene). The radioactivity retained on the filters was then determined in a liquid scintillation counter (Packard Tri-Carb 1600 TR).
This procedure aims to obtain a saturation curve with less expenditure of radioactive substances and biological materials. Since competition assays allow us to construct inhibition curves of specific binding of radioligand. The higher the concentration of competitor agent employed in this case the LDT's study, the greater the competition for specific receptors, decreasing the formation radioligand-receptor complex. This can be seen by the gradual decrease of radioactivity retained on the filters is detected by the counter liquid scintillation.
These values were converted to Ki values (competitive dissociation constant at equilibrium or inhibition constant) using the Cheng-Prusoff equation (Eq. 2).

5-HT2A receptors = biological target: T2, 5-HT2A receptors (Rattus norvegicus, UniProt P14842); test: [3H]-ketanserin binding to 5-HT2A receptors (rat cortex membranes)
T2 construct: from tissue; host or cells: rat cortex membranes
T2 sequence (P14842 whole entry): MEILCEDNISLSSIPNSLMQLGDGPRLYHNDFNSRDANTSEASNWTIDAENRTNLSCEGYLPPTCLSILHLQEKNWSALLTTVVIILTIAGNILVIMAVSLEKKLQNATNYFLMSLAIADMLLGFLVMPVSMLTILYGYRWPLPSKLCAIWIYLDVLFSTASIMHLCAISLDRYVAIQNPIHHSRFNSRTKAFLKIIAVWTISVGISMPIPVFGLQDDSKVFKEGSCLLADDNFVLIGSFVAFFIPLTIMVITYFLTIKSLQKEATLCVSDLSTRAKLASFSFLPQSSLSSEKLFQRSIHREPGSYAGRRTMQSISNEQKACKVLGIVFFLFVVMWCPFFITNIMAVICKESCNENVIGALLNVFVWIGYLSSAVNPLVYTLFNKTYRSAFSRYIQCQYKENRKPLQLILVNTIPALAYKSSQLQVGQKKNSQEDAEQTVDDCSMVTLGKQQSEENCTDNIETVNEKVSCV
Experimental: Membrane preparations of rat cortex as described previously in the literature were performed. The organs were homogenized in a Potter with the aid of a motor unit (Fisatom) and Teflon piston in the proportion of 20 parts of 50 mM Tris HCl (pH 7.4 at 4° C.) for one piece of material, three times for 30 seconds each time, at intervals the solution was allowed to stand on ice for 1 minute.
Then it was performed a centrifugation at 900×g for 10 minutes at 4° C. It was obtained a […] which was resuspended in solution cold 50 mM Tris-HCl (pH 7.4) and the same procedure was performed once more. The supernatant was then centrifuged at 48,000×g for 10 minutes at 4° C. yielding a pellet which was resuspended at a ratio of 20 parts of 50 mM Tris HCl (pH 7.4 at 4° C.) for one piece of material, and incubated at 37° C. for 10 minutes in order to remove the endogenous neurotransmitters. Finally, centrifugation two times more at 48,000×g was performed for 10 minutes at 4° C., and then the final pellet was resuspended in a solution of 50 mM Tris-HCl (pH 7.4).
The binding assays for 5-HT2A receptors were performed as described in the literature. […] (solvent for dilution of the LDT's), to determine the total binding, or 50 μL non-radioactive ketanserin at 10 μM for the determination of nonspecific binding (final volume of 500 μL). Assays were performed in triplicate.
After the incubation period, the reaction was stopped by adding 4 ml of ice-cold solution containing 5 mM Tris (pH 7.4), followed by vacuum filtration on glass fiber filter (GMF 3, Filtrak®) previously soaked with solution 0.5% polyethylenoimine The filters were washed three times with 4 mL of ice-cold solution containing 5 mM Tris (pH 7.4) under vacuum to remove all free radioligand. Then the filters were dried and placed in vials containing 5 ml scintillation fluid (4% PPO, 0.1% POPOP w/v in toluene). The radioactivity retained on the filters was then determined in a liquid scintillation counter (Packard Tri-Carb 1600 TR). […] To these receptors were also determined CI50 and Ki parameters.

[1] = Table 10, Cheng-Prusoff, read-out: Ki
[2] = Table 10, read-out: log CI50 ± EPM (converted)
[3] = Table 5, Cheng-Prusoff, read-out: α1A Ki
[4] = Table 11, Cheng-Prusoff, read-out: Ki

Row | SMILES | IC50 (α1A adrenoceptors) [M] | Ki (α1A adrenoceptors) [M] | IC50 (5-HT2A receptors) [nM] | Ki (5-HT2A receptors) [nM] | α1A log IC50 (M) (α1A adrenoceptors; Table 5) | Ki (α1A adrenoceptors; [3]) [M] | log IC50 (M) (5-HT2A receptors; Table 11) | Ki (5-HT2A receptors; [4]) [nM] | further results
1 | COc1ccccc1N1CCN(CCc2ccccc2)CC1 [LDT 2] | 1.91e-08 | 1.57e-08 | 74.1 | 47.4 |  |  |  |  | 
2 | COc1cccc(CCN2CCN(c3ccccc3OC)CC2)c1 [LDT 3] | 5.62e-09 | 4.63e-09 | 70.8 | 45.2 |  |  |  |  | 
3 | COc1ccc(CCN2CCN(c3ccccc3OC)CC2)cc1 [LDT 4] | 1.07e-08 | 8.81e-09 | 69.2 | 44.2 |  |  |  |  | 
4 | COc1ccc(CCN2CCN(c3ccccc3OC)CC2)cc1OC [LDT 5] | 4.47e-09 | 3.67e-09 | 389 | 248 |  |  |  |  | 
5 | COc1ccccc1N1CCN(CCC2CCCCC2)CC1 [LDT 6] |  |  |  |  |  |  |  |  | Ki (α1A adrenoceptors; Table 3, Cheng-Prusoff, read-out: Ki (M) High Affinity site): 2.16e-09 M; IC50 (α1A adrenoceptors; read-out: log CI50 ± EPM (M) High Affinity site (converted)): 2.63e-09 M; Ki (5-HT2A receptors; [1]): 376 nM; IC50 (5-HT2A receptors; [2]): 589 nM
6 | CCOc1ccccc1N1CCN(CCc2ccc3c(c2)OCO3)CC1 [LDT 8] | 4.57e-09 | 3.76e-09 |  |  |  |  |  |  | Ki (5-HT2A receptors; [1]): 248 nM; IC50 (5-HT2A receptors; [2]): 389 nM
7 | CCN1CCN(c2ccccc2)CC1 [LDT 39] |  |  |  |  | −6.36 ± 0.21 M | 3.74e-07 | −5.16 ± 0.16 M | 4440 | 
8 | CCN1CCN(c2ccccc2OC)CC1 [LDT 62] |  |  |  |  | −6.51 ± 0.2 M | 2.61e-07 | −5.00 ± 0.06 M | 6410 | 
9 | CCCN1CCN(c2ccccc2OC)CC1 [LDT 63] |  |  |  |  | −6.50 ± 0.08 M | 2.7e-07 | −4.86 ± 0.13 M | 8850 | 
10 | CCCCN1CCN(c2ccccc2OC)CC1 [LDT 64] |  |  |  |  | −6.84 ± 0.04 M | 1.24e-07 | −5.06 ± 0.09 M | 5580 | 
11 | CCCCCN1CCN(c2ccccc2OC)CC1 [LDT 65] | 7.94e-08 | 6.7e-08 | 4570 | 2930 |  |  |  |  | 
12 | CCCCCCN1CCN(c2ccccc2OC)CC1 [LDT 66] |  |  |  |  | −7.29 ± 0.11 a M | 4.3e-08 | −5.57 ± 0.16b M | 1720 | 
13 | CCCCCCCN1CCN(c2ccccc2OC)CC1 [LDT 67] |  |  |  |  | −7.02 ± 0.12 a M | 8.1e-08 | −5.53 ± 0.13b M | 1890 | 
14 | CCCCCCCCN1CCN(c2ccccc2OC)CC1 [LDT 68] |  |  |  |  | −7.35 ± 0.2 a M | 3.8e-08 | −5.64 ± 0.08b M | 1470 | 
15 | CCOc1ccccc1N1CCN(CC)CC1 [LDT 69] |  |  |  |  | −7.41 ± 0.25 a M | 3.3e-08 | −5.02 ± 0.06 M | 6120 | 
16 | CCN1CCN(c2ccccc2O)CC1 [LDT 70] |  |  |  |  | −6.45 ± 0.07 M | 3.04e-07 | −4.20 ± 0.03a M | 40400 | 
